Converted amounts (≈) assume the structure as drawn. Read-outs that look alike come from different tables or passages of the source.
Legend:
E. coli W3110 = test: microbe, parasite or virus in culture; format: cell-based; conditions: for MIC: Escherichia coli, W3110, 22 h, read-out: MIC E. coli W3110
E. coli W3110RL = test: microbe, parasite or virus in culture; format: cell-based; conditions: for MIC E. coli W3110RL: E. coli with lpxC of R. leguminosarum, 22 hours at 37° C., MTT; for MIC: Escherichia coli, W3110RL, 22 h, read-out: MIC E. coli W3110RL
P. aeruginosa (PAO1) = test: MIC, P. aeruginosa; format: cell-based; conditions: for MIC P. aeruginosa (PAO1): 22 hours at 37° C., MTT; for MIC: Pseudomonas aeruginosa, PAO1, 22 h, read-out: MIC P. aeruginosa (PAO1)
E. coli W3110PA = test: microbe, parasite or virus in culture; format: cell-based; conditions: for MIC E. coli W3110PA: E. coli with lpxC of P. aeruginosa, 22 hours at 37° C., MTT; for MIC: Escherichia coli, W3110PA, 22 h, read-out: MIC E. coli W3110PA
N. gonorrhoeae FA19 = test: MIC, N. gonorrhoeae drug-sensitive strain; format: cell-based; conditions: for MIC: Neisseria gonorrhoeae, read-out: MIC N. gonorrhoeae FA 19
N. gonorrhoeae 35/02 [1] = test: MIC, N. gonorrhoeae drug-resistant strain; format: cell-based; conditions: drug-resistant strain 35/02; for MIC: Neisseria gonorrhoeae
[2] = tested on: Acinetobacter Baumannii antibiotic susceptible strain (Sus. A.b. Isolate); test: Disk diffusion assay, antibiotic susceptible strain; format: cell-based; design: key to diameter of the growth inhibition, Sus. A.b. Isolate: A: no detectable inhibition; B: 6-10 mm; C: 11-15 mm; D: ≧16; conditions: 2 μg of compound per disc, disc 6 mm in diameter; for zone of inhibition at 2 µg/disc: Acinetobacter baumannii, read-out: diameter of the growth inhibition, Sus. A.b. Isolate
[3] = tested on: Acinetobacter Baumannii multidrug-resistant strain (MDR A.b. Isolate); test: Disk diffusion assay, multidrug-resistant strain; format: cell-based; design: key to diameter of the growth inhibition, MDR A.b. Isolate: A: no detectable inhibition; B: 6-10 mm; C: 11-15 mm; D: ≧16; conditions: 2 μg of compound per disc, disc 6 mm in diameter; for zone of inhibition at 2 µg/disc: Acinetobacter baumannii, read-out: diameter of the growth inhibition, MDR A.b. Isolate
N. gonorrhoeae 35/02 [4] = conditions: resistance profile of strain 35/02; cited from earlier work

MIC (N. gonorrhoeae FA19) | MIC (N. gonorrhoeae 35/02 [1]) | Molecule | diameter of the growth inhibition, Sus. A.b. Isolate [2] | diameter of the growth inhibition, MDR A.b. Isolate [3] | MIC (E. coli W3110) | MIC (E. coli W3110RL) | MIC (P. aeruginosa (PAO1)) | MIC (E. coli W3110PA) | zone of inhibition at 2 µg/disc [2] | zone of inhibition at 2 µg/disc [3] | other results
– | – | C[C@@H](O)[C@H](NC(=O)c1ccc(C#CC#Cc2ccc(N)cc2)cc1)C(=O)NO [CPD-011, (2S,3R)-2-{4′-[(4″-aminophenyl)buta-1′,3′-diynyl]benzamido}-1,3-dihydroxybutanamide] | A | A | – | – | – | – | – | – | MIC E. coli W3110 (E. coli W3110): A (key: A: <1 μg/mL; B: 1-10 μg/mL; C: 11-50 μg/mL; D: 51-100 μg/mL; E: >100 μg/mL); MIC E. coli W3110RL (E. coli W3110RL): B (1-10 μg/mL); MIC P. aeruginosa (PAO1) (P. aeruginosa (PAO1)): A (<1 μg/mL); MIC E. coli W3110PA (E. coli W3110PA): A (<1 μg/mL); MIC N. gonorrhoeae FA 19 (N. gonorrhoeae FA19): C (2-4 μg/mL); MIC N. gonorrhoeae 35/02 (N. gonorrhoeae 35/02 [1]): D (5-7 μg/mL)
– | – | C[C@@H](O)[C@H](NC(=O)c1ccc(C#CC#Cc2cccc(N)c2)cc1)C(=O)NO [CPD-012, (2S,3R)-2-{4′-[(3″-aminophenyl)buta-1′,3′-diynyl]benzamido}-1,3-dihydroxybutanamide] | A | A | – | – | – | – | – | – | MIC E. coli W3110 (E. coli W3110): A (key: A: <1 μg/mL; B: 1-10 μg/mL; C: 11-50 μg/mL; D: 51-100 μg/mL; E: >100 μg/mL); MIC E. coli W3110RL (E. coli W3110RL): B (1-10 μg/mL); MIC P. aeruginosa (PAO1) (P. aeruginosa (PAO1)): A (<1 μg/mL); MIC E. coli W3110PA (E. coli W3110PA): A (<1 μg/mL)
– | – | C[C@@H](O)[C@H](NC(=O)c1ccc(C#CC#Cc2ccccc2N)cc1)C(=O)NO [CPD-013, (2S,3R)-2-{4′-[(2″-aminophenyl)buta-1′,3′-diynyl]benzamido}-1,3-dihydroxybutanamide] | A | A | – | – | – | – | – | – | MIC E. coli W3110 (E. coli W3110): A (key: A: <1 μg/mL; B: 1-10 μg/mL; C: 11-50 μg/mL; D: 51-100 μg/mL; E: >100 μg/mL); MIC E. coli W3110RL (E. coli W3110RL): C (11-50 μg/mL); MIC P. aeruginosa (PAO1) (P. aeruginosa (PAO1)): B (1-10 μg/mL); MIC E. coli W3110PA (E. coli W3110PA): A (<1 μg/mL); MIC N. gonorrhoeae FA 19 (N. gonorrhoeae FA19): B (0.1-1 μg/mL); MIC N. gonorrhoeae 35/02 (N. gonorrhoeae 35/02 [1]): C (2-4 μg/mL)
– | – | CC(C)(O)[C@H](NC(=O)c1ccc(C#CC#Cc2ccc(N)cc2)cc1)C(=O)NO [CPD-037, (2S)-2-({4′-[4′-(4′-aminophenyl)buta-1′,3′-diyn-1-yl]phenyl}formamido)-N,3′-dihydroxy-3′-methylbutanamide] | – | – | < 1 µg/mL | 1 to 10 µg/mL (≈ 2.55 to 25.5 µM) | < 1 µg/mL | < 1 µg/mL | 11 to 15 mm | 6 to 10 mm | –
– | – | C[C@](O)(c1ccc(O)cc1)[C@H](NC(=O)c1ccc(C#CC#Cc2ccc(N)cc2)cc1)C(=O)NO [CPD-051, 4-((4-aminophenyl)buta-1,3-diynyl)-N-((2S)-3-hydroxy-1-(hydroxyamino)-3-(4-hydroxyphenyl)-1-oxobutan-2-yl)benzamide] | A | A | < 1 µg/mL | 51 to 100 µg/mL (≈ 109 to 213 µM) | < 1 µg/mL | < 1 µg/mL | – | – | –
– | – | C[C@@](O)(C(F)F)[C@H](NC(=O)c1ccc(C#CC#Cc2ccc(N)cc2)cc1)C(=O)NO [CPD-058, 4-((4-aminophenyl)buta-1,3-diynyl)-N-((2S,3S)-4,4-difluoro-3-hydroxy-1-(hydroxyamino)-3-methyl-1-oxobutan-2-yl)benzamide] | – | – | < 1 µg/mL | < 1 µg/mL | < 1 µg/mL | < 1 µg/mL | 11 to 15 mm | 11 to 15 mm | –
0.1 to 1 µg/mL (≈ 0.256 to 2.56 µM) | 2 to 4 µg/mL (≈ 5.12 to 10.2 µM) | CC(C)(N)[C@H](NC(=O)c1ccc(C#CC#Cc2ccccc2N)cc1)C(=O)NO [CPD-065, (S)-N-(3-amino-1-(hydroxyamino)-3-methyl-1-oxobutan-2-yl)-4-((2-aminophenyl)buta-1,3-diynyl)benzamide] | – | – | – | – | – | – | – | – | –
0.1 to 1 µg/mL (≈ 0.255 to 2.55 µM) | 2 to 4 µg/mL (≈ 5.11 to 10.2 µM) | CC(C)(O)[C@H](NC(=O)c1ccc(C#CC#Cc2ccccc2N)cc1)C(=O)NO [CPD-066, (S)-4-((2-aminophenyl)buta-1,3-diynyl)-N-(3-hydroxy-1-(hydroxyamino)-3-methyl-1-oxobutan-2-yl)benzamide] | – | – | – | – | – | – | – | – | –
< 0.1 µg/mL | 0.1 to 1 µg/mL (≈ 0.234 to 2.34 µM) | C[C@@](O)(C(F)F)[C@H](NC(=O)c1ccc(C#CC#Cc2ccccc2N)cc1)C(=O)NO [CPD-067, 4-((2-aminophenyl)buta-1,3-diynyl)-N-((2S,3S)-4,4-difluoro-3-hydroxy-1-(hydroxyamino)-3-methyl-1-oxobutan-2-yl)benzamide] | – | – | – | – | – | – | 6 to 10 mm | 6 to 10 mm | –
– | – | CO/N=C(\C(=O)N[C@@H]1C(=O)N2C(C(=O)O)=C(CSc3nc(=O)c(=O)[nH]n3C)CS[C@H]12)c1csc(N)n1 [ceftriaxone, reference compound] | A | A | – | – | – | – | – | – | MIC (N. gonorrhoeae 35/02 [4]): 0.12 µg/mL (≈ 0.216 µM)
– | – | penicillin | – | – | – | – | – | – | – | – | MIC (N. gonorrhoeae 35/02 [4]): 6 µg/mL

Molecule | MIC (N. gonorrhoeae FA19) | MIC (N. gonorrhoeae 35/02 [1]) | diameter of the growth inhibition, Sus. A.b. Isolate [2] | diameter of the growth inhibition, MDR A.b. Isolate [3] | MIC (E. coli W3110) | MIC (E. coli W3110RL) | MIC (P. aeruginosa (PAO1)) | MIC (E. coli W3110PA) | zone of inhibition at 2 µg/disc [2] | zone of inhibition at 2 µg/disc [3] | other results
CC(C)(N)[C@H](NC(=O)c1ccc(C#CC#Cc2ccc(N)cc2)cc1)C(=O)NO [CPD-040, (2S)-3-amino-2-({4′-[4′-(4′-aminophenyl)buta-1′,3′-diyn-1-yl]phenyl}formamido)-N-hydroxy-3-methylbutanamide] | 2 to 4 µg/mL (≈ 5.12 to 10.2 µM) | 5 to 7 µg/mL (≈ 12.8 to 17.9 µM) | – | – | < 1 µg/mL | 1 to 10 µg/mL (≈ 2.56 to 25.6 µM) | < 1 µg/mL | < 1 µg/mL | 6 to 10 mm | 6 to 10 mm | –
C[C@@H](O)[C@H](NC(=O)c1ccc(C#Cc2ccc(CN3CCOCC3)cc2)cc1)C(=O)NO [drawing 321] | 8 µg/mL (≈ 18.3 µM) | 8 µg/mL (≈ 18.3 µM) | – | – | – | – | – | – | – | – | –
